What was measured:
[1] = molecular target: IDO1 in Hela cells stimulated with IFNγ (Homo sapiens (Human), UniProt P14902); experiment: IDO1 Cellular Assay in Hela Cells Stimulated with IFNγ; format: cell-based; settings: IFNγ 100 ng/mL, about 48 hours, fluorescence readout, read-out: IDO1 HELA Cell Assay, IC50
Method: IDO1 Cellular Assay in Hela Cells Stimulated with IFNγ
Hela cells were cultured in complete Hela culture medium (90% EMEM, 10% heat-inactivated fetal bovine serum) and expanded to about 1×10^9 cells. The cells were then collected and frozen down at 10×10^6 cells/vial in 1 mL frozen medium (90% complete Hela culture medium, 10% DMSO)
Compounds to be tested were serially diluted in ten 3-fold steps in DMSO starting from 10 mM DMSO stocks in Echo low volume plate(s). Compound dilutions or DMSO alone were then dispensed from the dilution plate(s) into Greiner black 384-well assay plate(s) (catalog #781086, 50 nL/well) using an Echo 550 acoustic liquid handler (Labcyte).
Frozen Hela cells were thawed and transferred into Hela assay medium (99% complete Hela culture medium, 1% Pen/Strep) with 20 mL medium/vial of cells. The cells were spun down at 250 g in a table top centrifuge for 5 min and suspended in same volume of Hela assay medium. The cells were then counted and adjusted to a density of 2×10^5 cells/ml in Hela assay medium. Sterile L-tryptophan were added to the cells with final concentration of 300 uM L-tryptophan. A small aliquot (2 mL/plate) of Hela cells were set aside and were not treated with IFNγ, to serve as the Max-E control. The rest of Hela cells were added with sterile IFNγ (Cat #285-IF, R & D systems) with a final concentration of 100 ng/mL.
Hela cells with and without IFNγ were dispensed to the respective wells of 384-well assay plates containing the compounds. The plates were incubated for about 48 hours at a 37° C., 5% CO2 incubator. Afterwards, 12 μL of 0.5 M methyl isonipecotate in dimethyl sulfoxide were added into each well and the plates were sealed and incubated at 37° C. without CO2 overnight. The plates were centrifuged for 1 min at 200×g. The resulting fluorescence was measured in a Spectramax plate reader (Molecular Devices) with a 400 nm excitation filter and a 510 nm emission filter.
The fluorescence intensity of each well was corrected for the background observed in wells with non-IFNγ-treated cells and was expressed as a fraction of the intensity observed in wells of IFNγ-treated cells and DMSO only. Potencies were calculated by linear least squares fit to the four parameter logistic IC50 equation.

HIS-tagged IDO1 protein = HIS-tagged IDO1 protein (Homo sapiens (Human), UniProt P14902); experiment: IDO1 Enzyme Assay; format: biochemical; settings: recombinant IDO1 40 nM, tryptophan substrate, fluorescence readout
Method: Biological Assays IDO1 Enzyme Assay
Compounds to be tested were serially diluted in ten 3-fold steps in DMSO starting from 10 mM DMSO stocks. Compound dilutions or DMSO alone were then dispensed from the dilution plate into a Greiner black 384-well assay plate (catalog #781086) using an Echo 555 acoustic liquid handler (Labcyte).
HIS-tagged IDO1 protein was recombinantly expressed in Escherichia coli using ZYP5052 autoinduction media supplemented with 500 μM delta aminolevulinic acid for 48 hours at 16 degrees Celsius. IDO1 protein was purified using Ni^2+-affinity resin and size exclusion chromatography. Purified protein was then diluted in assay buffer (50 mM Tris pH 7.0, 1% glycerol, 20 μM methylene blue, 0.05% Tween-20, 20 mM sodium ascorbate, 100 units/mL catalase to obtain a final IDO1 concentration of 40 nM. IDO1 solution […] or buffer alone […] was dispensed to wells of the assay plate using a BioRAPTR liquid dispenser (Beckman Coulter). Assay plates containing compound and IDO1 enzyme were incubated at room temperature for 30 minutes. Afterwards, 10 μL of 400 μM tryptophan in assay buffer were added to each well of the assay plate using a BioRAPTR liquid dispenser. Plates were incubated at room temperature for 60 minutes and reactions were quenched by addition of 10 μL of 0.5 M methyl isonipecotate in dimethyl sulfoxide. Plates were sealed and incubated at 37 degrees Celsius for 4 hours or 50 degrees Celsius for 2 hours. The plates are allowed to cool and then centrifuged for 1 minute at 1000×g. The resulting fluorescence was measured in an Envision plate reader (Perkin Elmer) with a 400/25 nm excitation filter and an 510/20 nm emission filter.
Potencies were calculated by linear least squares fit to the four parameter logistic IC50 equation.

Sequence of HIS-tagged IDO1 protein (P14902 whole entry): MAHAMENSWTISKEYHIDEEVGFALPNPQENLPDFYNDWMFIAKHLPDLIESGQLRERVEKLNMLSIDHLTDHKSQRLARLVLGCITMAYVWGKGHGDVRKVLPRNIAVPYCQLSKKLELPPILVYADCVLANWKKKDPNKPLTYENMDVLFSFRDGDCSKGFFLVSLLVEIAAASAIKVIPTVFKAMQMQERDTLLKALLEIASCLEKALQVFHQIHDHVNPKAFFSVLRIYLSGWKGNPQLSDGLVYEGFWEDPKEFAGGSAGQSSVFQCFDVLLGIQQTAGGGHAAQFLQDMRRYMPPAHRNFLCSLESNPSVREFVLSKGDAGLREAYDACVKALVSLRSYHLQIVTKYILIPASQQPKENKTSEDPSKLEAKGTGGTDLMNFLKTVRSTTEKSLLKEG
Sequence of IDO1 in Hela cells stimulated with IFNγ (P14902 whole entry): as above

| Structure (SMILES) | IC50 [1] | IC50 (HIS-tagged IDO1 protein) |
| --- | --- | --- |
| CC(=O)N[C@@H](CO)COc1nonc1/C(=N/O)N[C@H]1Cc2ccc(F)cc21 [Example 52, N-{(2S)-1-[(4-{N-[(7S)-4-fluorobicyclo[4.2.0]octa-1,3,5-trien-7-yl]-N′-hydroxycarbamimidoyl}-1,2,5-oxadiazol-3-yl)oxy]-3-hydroxypropan-2-yl}acetamide] | 1290 nM | 1810 nM |
| NS(=O)(=O)N1CC[C@H](Oc2nonc2/C(=N/O)N[C@H]2Cc3ccc(F)cc32)C1 [Example 32, N-[(7S)-4-fluorobicyclo[4.2.0]octa-1,3,5-trien-7-yl]-N′-hydroxy-4-{[(3S)-1-sulfamoylpyrrolidin-3-yl]oxy}-1,2,5-oxadiazole-3-carboximidamide] | 340 nM | 308 nM |
| CC(C)(Oc1nonc1/C(=N/O)NC1Cc2ccc(F)cc21)C(=O)NCCO (stereo not shown) [Example 19, 2-({4-[N-(4-fluorobicyclo[4.2.0]octa-1,3,5-trien-7-yl)-N′-hydroxycarbamimidoyl]-1,2,5-oxadiazol-3-yl}oxy)-N-(2-hydroxyethyl)-2-methylpropanamide] | 2850 nM | 7790 nM |
| O=C(COc1nonc1/C(=N/O)NC1Cc2ccc(F)cc21)NCC(O)CO (stereo not shown) [Example 12, N-(2,3-dihydroxypropyl)-2-({4-[N-(4-fluorobicyclo[4.2.0]octa-1,3,5-trien-7-yl)-N′-hydroxycarbamimidoyl]-1,2,5-oxadiazol-3-yl}oxy)acetamide] | 920 nM | 700 nM |
| NS(=O)(=O)N1CC[C@@H](Oc2nonc2/C(=N/O)N[C@H]2Cc3ccc(F)cc32)C1 [Example 31, N-[(7S)-4-fluorobicyclo[4.2.0]octa-1,3,5-trien-7-yl]-N′-hydroxy-4-{[(3R)-1-sulfamoylpyrrolidin-3-yl]oxy}-1,2,5-oxadiazole-3-carboximidamide] | 750 nM | 747 nM |
| CC(=O)NC[C@H](C)Oc1nonc1/C(=N/O)N[C@H]1Cc2ccc(F)cc21 [Example 40, N-{(2S)-2-[(4-{N-[(7S)-4-fluorobicyclo[4.2.0]octa-1,3,5-trien-7-yl]-N′-hydroxycarbamimidoyl}-1,2,5-oxadiazol-3-yl)oxy]propyl}acetamide] | 1040 nM | 2380 nM |
| NS(=O)(=O)N1CC(Oc2nonc2/C(=N/O)N[C@H]2Cc3ccc(F)cc32)C1 [Example 62, (S,Z)-N-(4-fluorobicyclo[4.2.0]octa-1(6),2,4-trien-7-yl)-N′-hydroxy-4-((1-sulfamoylazetidin-3-yl)oxy)-1,2,5-oxadiazole-3-carboximidamide] | 44 nM | 24 nM |
| O=C(CO)N1CC[C@@H](Oc2nonc2/C(=N/O)N[C@H]2Cc3ccc(F)cc32)C1 [Example 60, N-[(7S)-4-fluorobicyclo[4.2.0]octa-1,3,5-trien-7-yl]-N′-hydroxy-4-{[(3R)-1-(hydroxyacetyl)pyrrolidin-3-yl]oxy}-1,2,5-oxadiazole-3-carboximidamide] | 1440 nM | 1390 nM |
| COC(=O)NCCOc1nonc1/C(=N/O)N[C@H]1Cc2ccc(F)cc21 [Example 41, methyl {2-[(4-{N-[(7S)-4-fluorobicyclo[4.2.0]octa-1,3,5-trien-7-yl]-N′-hydroxycarbamimidoyl}-1,2,5-oxadiazol-3-yl)oxy]ethyl}carbamate] | 181 nM | 141 nM |
| O=C(NCCOc1nonc1/C(=N/O)N[C@H]1Cc2ccc(F)cc21)[C@H](O)CO [Example 20, (2R)-N-{2-[(4-{N-[(7S)-4-fluorobicyclo[4.2.0]octa-1,3,5-trien-7-yl]-N′-hydroxycarbamimidoyl}-1,2,5-oxadiazol-3-yl)oxy]ethyl}-2,3-dihydroxypropanamide] | 2360 nM | 302 nM |
| O=C(CO)N1CC(COc2nonc2/C(=N/O)N[C@H]2Cc3ccc(F)cc32)C1 [Example 59, N-[(7S)-4-fluorobicyclo[4.2.0]octa-1,3,5-trien-7-yl]-N′-hydroxy-4-{[1-(hydroxyacetyl)azetidin-3-yl]methoxy}-1,2,5-oxadiazole-3-carboximidamide] | 298 nM | 364 nM |
| C[C@@H](CNC(=O)CO)Oc1nonc1/C(=N/O)N[C@H]1Cc2ccc(F)cc21 [Example 46, N-{(2S)-2-[(4-{N-[(7S)-4-fluorobicyclo[4.2.0]octa-1,3,5-trien-7-yl]-N′-hydroxycarbamimidoyl}-1,2,5-oxadiazol-3-yl)oxy]propyl}-2-hydroxyacetamide] | 1640 nM | 2450 nM |
| NS(=O)(=O)NCCOc1nonc1/C(=N/O)N[C@H]1CCc2ccc(F)cc21 [Example 24, N-[(1S)-6-fluoro-2,3-dihydro-1H-inden-1-yl]-N′-hydroxy-4-[2-(sulfamoylamino)ethoxy]-1,2,5-oxadiazole-3-carboximidamide] | 1300 nM | 421 nM |
| C[C@@H](O)CNC(=O)COc1nonc1/C(=N/O)N[C@H]1Cc2ccc(F)cc21 [Example 10, 2-[(4-{N-[(7S)-4-fluorobicyclo[4.2.0]octa-1,3,5-trien-7-yl]-N′-hydroxycarbamimidoyl}-1,2,5-oxadiazol-3-yl)oxy]-N-[(2R)-2-hydroxypropyl]acetamide] | 335 nM | 100 nM |
| NS(=O)(=O)CCCOc1nonc1/C(=N/O)N[C@H]1Cc2ccc(F)cc21 [Example 29, N-[(7S)-4-fluorobicyclo[4.2.0]octa-1,3,5-trien-7-yl]-N′-hydroxy-4-(3-sulfamoylpropoxy)-1,2,5-oxadiazole-3-carboximidamide] | 147 nM | 73.1 nM |
| O=C(NCCOc1nonc1/C(=N/O)N[C@H]1Cc2ccc(F)cc21)[C@@H](O)CO [Example 26, (2S)-N-{2-[(4-{N-[(7S)-4-fluorobicyclo[4.2.0]octa-1,3,5-trien-7-yl]-N′-hydroxycarbamimidoyl}-1,2,5-oxadiazol-3-yl)oxy]ethyl}-2,3-dihydroxypropanamide] | 284 nM | 214 nM |
| CC(C)(O)C(=O)N[C@H]1C[C@@H](Oc2nonc2/C(=N/O)N[C@H]2Cc3ccc(F)cc32)C1 [Example 66, N-((1R,3s)-3-((4-((Z)-N-((S)-4-fluorobicyclo[4.2.0]octa-1(6),2,4-trien-7-yl)-N′-hydroxycarbamimidoyl)-1,2,5-oxadiazol-3-yl)oxy)cyclobutyl)-2-hydroxy-2-methylpropanamide] | 287 nM | 167 nM |
| O=C(COc1nonc1/C(=N/O)N[C@H]1CCc2ccc(F)cc21)NCCO [Example 13, 2-[(4-{N-[(1S)-6-fluoro-2,3-dihydro-1H-inden-1-yl]-N′-hydroxycarbamimidoyl}-1,2,5-oxadiazol-3-yl)oxy]-N-(2-hydroxyethyl)acetamide] | 774 nM | 483 nM |
| O/N=C(\N[C@H]1Cc2ccc(F)cc21)c1nonc1OCCn1cnnc1 [Example 28, N-[(7S)-4-fluorobicyclo[4.2.0]octa-1,3,5-trien-7-yl]-N′-hydroxy-4-[2-(4H-1,2,4-triazol-4-yl)ethoxy]-1,2,5-oxadiazole-3-carboximidamide] | 561 nM | 396 nM |
| O=C(NCCOc1nonc1/C(=N/O)N[C@H]1Cc2ccc(F)cc21)c1nc[nH]n1 [Example 22, N-{2-[(4-{N-[(7S)-4-fluorobicyclo[4.2.0]octa-1,3,5-trien-7-yl]-N′-hydroxycarbamimidoyl}-1,2,5-oxadiazol-3-yl)oxy]ethyl}-1H-1,2,4-triazole-3-carboxamide] | 308 nM | 264 nM |
